Test results: patent US10039729B2, “Use of kukoamine A and kukoamine B” (Tianjin Chase Sun Pharmaceutical Co., Ltd., priority 2010, dated 2018)

Tests used:
[1] = tested on: murine peritoneal macrophages; test: Release of TNF-α and IL-6 in murine peritoneal macrophages induced by LPS and CpG DNA (ELISA); assay type: cell-based, KM mice; conditions: 50, 100 and 200 μM, TNF-α at 4 h, IL-6 at 12 h
Experimental: Separation and culture of murine peritoneal macrophages: KM mice were killed by cervical dislocation and immediately immersed in 75% ethanol for skin degerming; then abdominal skin was aseptically cut open; precooling DMEM cell culture medium was slowly injected in exposed peritoneum with a 5 ml syringe; murine abdomen was gently massaged for sufficient cell collection; subsequently, DMEM was withdrew, transferred into 10 ml centrifuge tube, centrifuged at 500 rpm for 5 min, resuspended in DMEM supplemented with 10% (v/v) NCS, transferred into cell culture bottle, and then cultured at 37° C. in a 5% CO2 humidified incubator for 2 h; culture medium was replaced with fresh culture medium to remove unattached cells; over 95% of the remained cells were murine peritoneal macrophages, which continued to be cultured and proliferated.
Loading and detection: According to the method in embodiment 6, KB and PMB were separately diluted in DMEM supplemented with 10% (v/v) NCS and transferred into culture medium of […] to achieved final concentrations of 50, 100 and 200 μM; RAW264.7 cells continued to be incubated; the supernatant was collected four hours later for TNF-α detection; the supernatant at were collected 12 hours later for IL-6 detection; the concentration of TNF-α and IL-6 of each group was detected according to the manufacturer's instructions of ELISA kit; result was expressed by means of mean±standard deviation.

[2] = tested on: mice challenged by heat-killed Escherichia coli; test: LPS and TNF-α levels in blood of mice challenged by heat-killed E. coli; assay type: in vivo, Kunming mice; conditions: for LPS level in mice blood / TNF-α level in mice blood: 40 mg/kg 10 min after heat-killed E. coli 1.1×10^10 CFU/Kg, various time points, p<0.05 or p<0.01 vs control
Experimental: 8.1 Methods: Supernatant of heat-killed E. coli was prepared according to 2.3.3 items of embodiment 2; absorbance values of the supernatant were assayed at 600 nm (OD600 value 1.0≈1.0×10^10 CFU/ml); a total of 84 Kunming mice, half male and half female, were divided into three groups randomly: heat-killed E. coli control group, KA (40 mg/kg) plus heat-killed E. coli group and KB (40 mg/kg) plus heat-killed E. coli group; each group has 28 mice; after animals were weighed, heat-killed E. coli control group was injected with heat-killed E. coli(1.1×10^10 CFU/Kg); the other two groups were respectively injected with KA or KB (40 mg/kg) at 10 min after injection of heat-killed E. coli(1.1×10^10 CFU/Kg); the total injection of each animal was 200 μl per 20 g body weight; orbital venous blood of mice was collected at time point of 0, 2, 4, 8, 12, 24, 48 and 72 h after injection; LPS level was assayed by kinetic turbidimetric limulus test, and TNF-α was assayed by ELISA.
28.1 Methods: Kunming mice were randomly divided into two groups, and there were 56 mice in each group; heat-killed E. coli was diluted to make 1.0×10^9 CFU/ml suspension, and KB was dissolved to 6 mg/ml with sterile saline; caudal vein injection was adopted; medium group was injected with heat-killed Escherichia coli (0.2 ml per 20 g body weight) and sterile saline (0.2 ml per 20 g body weight); KB treatment groups were injected with heat-killed E. coli suspension S (0.2 ml per 20 g body weight) and KB (0.2 ml per 20 g body weight). Orbital venous blood of mice in medium group and KB treatment group was collected at time point of 0, 4, 8, 12, 24, 48 and 72 h after injection, the specific methods are: mice were killed by cervical dislocation, and immersed in 75% ethanol for skin degerming; the eye of mouse was removed, and blood was collected into a 1.5 ml EP tube; 10 μl blood were added into 190 μl nonpyrogenic water; solution was kept standing for 5-10 min for neutral sedimentation, and centrifuged at 1000 rpm for 10 min; the supernatant was transferred into a new centrifuge tube and stored at −20° C. for further detection; the rest was keep standing until aggregation and serum precipitation, then centrifuged at 3000 rpm for 10 min; the supernatant was transferred into a new centrifuge tube and stored at −20° C. for further detection;
(1) Detection of LPS levels in plasma: 10 μl plasma sample was dissolved in 190 μl sterile saline and mixed. Detection of LPS levels was performed according to the operating procedure of EDS-99 Bacterial Endotoxin Detecting system. Result was expressed by means of mean±standard deviation.
(2) Detection of serum cytokine levels: Because of the small blood volume of mouse, serum was diluted 2 times for detection. Detection of the TNF-α concentration was performed according to the manufacturer's instructions of ELISA kit. Result was expressed by means of mean±standard deviation.

[3] = tested on: RAW264.7 cells; test: Cell vitality of RAW264.7 cells (MTT assay); assay type: cell-based, murine; conditions: 24 h; for RAW264.7 cells vitality (OD550): 200 μg/ml, p>0.05
Experimental: (1) Influence on vitality of RAW264.7 cells: According to embodiment 7, for the purpose of experiment a medium group, KB group (25, 50, 100, 200, 400 and 800 μM), a LPS (100 ng/ml)+KB (0, 100, 200 and 400 μM) group and a CpG DNA (10 μg/ml)+KB (0, 100, 200 and 400 μM) group were established; MTT was dissolved with PBS to make 5 mg/ml solution and filtered, which served as stock solution and stored at −20° C. for further detection; RAW264.7 cells were adjusted to 1×10^6/ml in DMEM medium, added into 96-well plates (200 μl per well), and cultured at 37° C. in a 5% CO2 humidified incubator for 4 h; the specified concentration of LPS, CpG DNA and KB were separately loaded according to the grouping; cells were cultured at 37° C. in a 5% CO2 humidified incubator for 24 h, centrifuged at 1000 rpm/min for 5 min; the supernatant was sucked and discarded; each well was added with 180 μl cell culture medium and 20 μl MTT stock solution, then cultured at 37° C. in a 5% CO2 humidified incubator for 4 h, and centrifuged at 1000 rpm/min for 10 min; then the supernatant was sucked and discarded; each well was added with 150 μl DMSO, and shook for 10 min for the dissolution of the crystals; RAW264.7 cells vitality was expressed as absorbance values at 550 nm of each well, which were instantly assayed by ELIASA.

[4] = tested on: murine peritoneal macrophages; test: Vitality of murine peritoneal macrophages (MTT method); assay type: cell-based; conditions: KB or KB plus LPS or CpG DNA; 24 h
Experimental: (2) Influence on vitality of murine peritoneal macrophages: Experiment methods are as above. Influences of the combination of KB with LPS or CpG DNA on vitality of murine peritoneal macrophages were assayed.

[5] = tested on: murine peritoneal macrophages; test: mRNA expression of TNF-α and IL-6 in murine peritoneal macrophages stimulated by LPS and CpG DNA; assay type: cell-based; conditions: 100, 200 μM, dose-dependent
Description: 16.1 Methods: Influence of KB on the mRNA expression of TNF-α and IL-6 in murine peritoneal macrophages stimulated by LPS and CpG DNA was observed. Methods were the same as embodiment 15.

Compound | release of TNF-α and IL-6 induced by CpG DNA [1] | release of TNF-α and IL-6 induced by LPS [1] | LPS level in mice blood [2] | TNF-α level in mice blood [2] | RAW264.7 cells vitality (OD550) [3] | vitality of murine peritoneal macrophages [4] | LPS levels in mice plasma vs heat-killed E. coli control group ([2]; sublethal heat-killed E. coli, KB 6 mg/ml, 0.2 ml per 20 g, 4, 8, 12, 24 and 48 h, p<0.05 or p<0.01) | TNF-α levels in mice serum vs heat-killed E. coli control group ([2]; sublethal heat-killed E. coli, KB 6 mg/ml, 0.2 ml per 20 g, 4, 8, 12 and 24 h, p<0.01) | absorbance values (vitality of RAW264.7 cells) vs medium group ([3]; KB 25-800 μM, or KB 0-400 μM plus LPS 100 ng/ml or CpG DNA 10 μg/ml) | mRNA expressions of TNF-α and IL-6 up-regulated by CpG DNA [5] | mRNA expressions of TNF-α and IL-6 up-regulated by LPS [5]
polymyxin B [PMB, reference compound] | can only inhibit the release of TNF-α and IL-6 induced by LPS | inhibit the release of TNF-α and IL-6 |  |  |  |  |  |  |  |  | 
O=C(CCc1ccc(O)c(O)c1)NCCCNCCCCNCCCNC(=O)CCc1ccc(O)c(O)c1 [KA, Kukoamine A] |  |  | significantly decreased | significantly decreased | no influence on RAW264.7 cells vitality |  |  |  |  |  | 
NCCCN(CCCCNCCCNC(=O)CCc1ccc(O)c(O)c1)C(=O)CCc1ccc(O)c(O)c1 [KB, Kukoamine B] | inhibit the release of TNF-α and IL-6 | inhibit the release of TNF-α and IL-6 | significantly decreased | significantly decreased | no influence on RAW264.7 cells vitality | The same result was also obtained | significantly lower | significantly lower | no statistic difference on absorbance values | significantly inhibit the mRNA expressions | significantly inhibit the mRNA expressions
